Like-named read-outs stand apart in the source and are kept apart here.
Tests used:
[1] = tested on: HCT116 homozygous MTAP knockout cells; test: Proliferation assay (CellTiter-Glo, 10 days of treatment), HCT116 MTAP knockout; format: cell-based; conditions: read-out: Proliferation HCT116MTAP_KO IC50
Method: (§1) 1. HCT116 MTAP Knockout Model
(§2) HCT116 cells were genetically engineered to knock out the function of both MTAP alleles using a CRISPR/Cas9 system and an sgRNA targeting the MTAP gene. Following Cas9/MTAP sgRNA transduction, clones were screened to confirm that each allele of the MTAP gene had been inactivated (i.e., homozygous MTAP knock out) creating an MTAP-deficient cell.
(§3) Control samples were analyzed in parallel.
Briefly, on Day 0, 250 HCT116 parental or HCT116 homozygous MTAP knockout cell were seeded in 96 well plates in McCoy's 5A supplemented with 10% fetal bovine serum and pen/strep and the cells were incubated overnight at 37° C. plus 5% CO2.
The following day, cells were treated with DMSO vehicle control or a dose response of PRMT5 inhibitors and incubated at 37 C plus 5% CO2 for five days. On Day 6, the cells were trypsinized and split 1:10 into new 96-well plates with fresh medium containing the same concentration of PRMT5 inhibitor and incubated for an additional 5 days at 37° C. plus 5% CO^2.
On Day 11, the viability of the cells was measured using a CTG assay kit (CellTiter-Glo; Promega cat.no G7573) in accordance with the manufacturer's instructions. The IC50 values for each compound after 10 days of treatment were calculated using GraphPad PRISM software.

[2] = tested on: PRMT5-dependent Symmetric Di-methyl Arginine signal in HCT116 homozygous MTAP knockout cells; test: SYM11 In-Cell Western, HCT116 MTAP knockout; format: cell-based
Method: as §1, §2, §3
Briefly, on Day 0, 2,000 HCT116 parental or HCT116 homozygous MTAP knockout cells were seeded in 96 well plates in McCoy's 5A supplemented with 10% fetal bovine serum and pen/strep and the cells were incubated overnight at 37° C. plus 5% CO2. The following day, cells were treated with DMSO vehicle control or a dose response of PRMT5 inhibitors, and incubated at 37° C. plus 5% CO^2 for four days.
After 4 days of treatment, the cells were fixed by adding 50 μl of 4% paraformaldehyde solution to each well and the cells were incubated for 20 min at room temperature. The paraformaldehyde solution was removed, 150 μl of ice-cold methanol was added and the plate was placed −20° C. for 10 minutes. The methanol was removed, 150 μl of Odyssey Blocking buffer+0.05% Tween20 was added and the plate was incubated at room temperature with shaking for one hour.
The primary SYM11 antibody solution was removed by aspiration and the wells were washed three consecutive times with phosphate buffered saline containing 0.1% Tween-20 (PBST).
The secondary antibody solution was removed by aspiration and the wells were washed three consecutive times with PB ST.
The SYM11 signal and the DRAQ5 signal were quantified using a Li-Cor Odyssey machine reading at […], respectively. The SYM11/DRAQ5 ratio was used to calculate the inhibition of Symmetric Dimethyl Arginine as percent of DMSO control.

PRMT5/MEP50 complex [3] = target: T1, PRMT5/MEP50 complex (Homo sapiens (Human), UniProt O14744); test: PRMT5:MEP50 FlashPlate Assay (histone H4 peptide substrate, plus and minus MTA); format: biochemical
T1 sequence (O14744 2-637): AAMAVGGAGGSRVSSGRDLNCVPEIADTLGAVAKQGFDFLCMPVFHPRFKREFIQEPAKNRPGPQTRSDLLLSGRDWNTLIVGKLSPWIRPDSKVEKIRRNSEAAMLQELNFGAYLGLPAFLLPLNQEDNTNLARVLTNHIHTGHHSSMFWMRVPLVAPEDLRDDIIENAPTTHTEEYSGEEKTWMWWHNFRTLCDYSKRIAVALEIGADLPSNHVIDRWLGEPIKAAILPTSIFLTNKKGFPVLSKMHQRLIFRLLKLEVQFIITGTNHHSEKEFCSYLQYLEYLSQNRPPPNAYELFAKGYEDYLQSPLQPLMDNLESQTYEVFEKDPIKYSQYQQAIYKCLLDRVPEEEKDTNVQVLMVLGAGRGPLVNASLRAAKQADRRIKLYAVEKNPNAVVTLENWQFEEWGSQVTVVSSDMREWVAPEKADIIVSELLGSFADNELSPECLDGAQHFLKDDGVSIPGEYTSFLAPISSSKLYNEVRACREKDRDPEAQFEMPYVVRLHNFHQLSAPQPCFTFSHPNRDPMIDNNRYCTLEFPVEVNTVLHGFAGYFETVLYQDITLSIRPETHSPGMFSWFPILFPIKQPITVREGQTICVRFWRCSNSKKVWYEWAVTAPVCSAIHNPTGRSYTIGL
T1 sequence (Q9BQA1 2-342 partner): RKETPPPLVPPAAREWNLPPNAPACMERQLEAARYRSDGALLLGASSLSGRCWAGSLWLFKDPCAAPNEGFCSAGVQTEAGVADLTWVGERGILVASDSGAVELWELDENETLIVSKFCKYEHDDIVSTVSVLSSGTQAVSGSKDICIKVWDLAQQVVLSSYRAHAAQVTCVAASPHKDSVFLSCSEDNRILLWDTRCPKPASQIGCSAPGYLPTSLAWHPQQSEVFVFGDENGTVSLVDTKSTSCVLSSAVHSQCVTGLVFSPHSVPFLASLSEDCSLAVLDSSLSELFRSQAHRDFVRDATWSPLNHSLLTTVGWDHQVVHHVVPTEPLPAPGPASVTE
Method: (§4) The PRMT5 inhibitory activity of compounds of the present invention was determined using either a PRMT5:MEP50 FlashPlate Assay (Reaction Biology Corporation) or a PRMT5:MEP50 HotSpot Assay (Reaction Biology Corporation).
1. PRMT5:MEP50 FlashPlate Assay

PRMT5/MEP50 complex [4] = target: T1, PRMT5/MEP50 complex; test: PRMT5:MEP50 HotSpot Assay (full-length histone H2A substrate, plus and minus MTA); format: biochemical
Method: as §4
The assay uses recombinant full-length histone H2A as the PRMT5 substrate. […] The reaction was stopped and transferred to filter paper for detection. The amount of tritiated H2A in each sample was determined using a scintillation counter.

[5] = HCT116 homozygous MTAP knockout cells, 4 days of treatment, SYM11/DRAQ5 ratio; read-out: In-cell-Western (SYM11) HCT116 MTAP_KO IC50
[6] = Homo sapiens, HCT-116, 96 h, HCT116 homozygous MTAP knockout cells, 4 days of treatment, SYM11/DRAQ5 ratio; read-out: In-cell-Western (SYM11) HCT116 MTAP_KO IC50
[7] = read-out: In-cell-Western (SYM11) HCT116 MTAP_KO IC50; HCT116 homozygous MTAP knockout cells, 4 days of treatment, SYM11/DRAQ5 ratio
[8] = IC50 + 2 μM MTA (nM), in the presence of 2 μM MTA
[9] = in the absence of MTA, read-out: IC50
[10] = IC50 + 2 μM MTA, in the presence of 2 μM MTA

SMILES	IC50 [2, 6] [nM]	IC50 ([1]; Homo sapiens, HCT-116, 240 h) [nM]	further results
CC(N)c1n[nH]c(=O)c2ccc(-c3cnn(C)c3-c3ccc4ccccc4c3C#N)cc12 (single isomer, unassigned) [Example 9-4, 2-[4-[4-(1-aminoethyl)-1-oxo-2H-phthalazin-6-yl]-2-methyl-pyrazol-3-yl]naphthalene-1-carbonitrile]			IC50 [1]: 4180 nM; IC50 [2, 5]: > 1000 nM
CCOc1cc(-c2cnn(C)c2-c2c(F)cc3ccccc3c2C#N)cc2c(CN)n[nH]c(=O)c12 (single isomer, unassigned) [Example 16-3, 2-[4-[4-(aminomethyl)-8-ethoxy-1-oxo-2H-phthalazin-6-yl]-2-methyl-pyrazol-3-yl]-3-fluoro-naphthalene-1-carbonitrile]	15		IC50 [1]: 84 nM
CCOc1cc(-c2cnn(C)c2-c2c(F)cc3ccccc3c2C#N)cc2c(CN)n[nH]c(=O)c12 (single isomer, unassigned) [Example 16-4, 2-[4-[4-(aminomethyl)-8-ethoxy-1-oxo-2H-phthalazin-6-yl]-2-methyl-pyrazol-3-yl]-3-fluoro-naphthalene-1-carbonitrile]			IC50 [1]: 15 nM; IC50 [2, 5]: 12 nM
Cn1ncc(-c2ccc3c(=O)[nH]nc(CN)c3c2)c1-c1c(F)c(Cl)cc(OC2CC2)c1C#N (single isomer, unassigned) [Example 16-7, 2-(4-(4-(aminomethyl)-1-oxo-1,2-dihydrophthalazin-6-yl)-1-methyl-1H-pyrazol-5-yl)-4-chloro-6-cyclopropoxy-3-fluorobenzonitrile]			IC50 [1]: 4000 nM; IC50 [2, 7]: 1000 nM
Cn1ncc(-c2ccc3c(=O)[nH]nc(CN)c3c2)c1-c1c(F)c(Cl)cc(OC2CC2)c1C#N (single isomer, unassigned) [Example 16-8, 2-(4-(4-(aminomethyl)-1-oxo-1,2-dihydrophthalazin-6-yl)-1-methyl-1H-pyrazol-5-yl)-4-chloro-6-cyclopropoxy-3-fluorobenzonitrile]			IC50 [1]: 24 nM; IC50 [2, 7]: 0.8 nM
Cn1ncc(-c2ccc3c(=O)[nH]nc(CN)c3c2)c1-c1ccc(Cl)cc1 [Example 4-96, 4-(aminomethyl)-6-(5-(4-chlorophenyl)-1-methyl-1H-pyrazol-4-yl)phthalazin-1(2H)-one]			IC50 (PRMT5/MEP50 complex [3]; [8]): 3.9 nM; IC50 (PRMT5/MEP50 complex [3]; [9]): 116 nM; IC50 (PRMT5/MEP50 complex [4]; [10]): 868 nM; IC50 (PRMT5/MEP50 complex [4]; [9]): > 10000 nM
COc1ccc(-c2c(-c3ccc4c(=O)[nH]nc(CN)c4c3)cnn2C)cc1 [Example 4-98, 4-(aminomethyl)-6-(5-(4-methoxyphenyl)-1-methyl-1H-pyrazol-4-yl)phthalazin-1(2H)-one]			IC50 (PRMT5/MEP50 complex [3]; [8]): 2.1 nM; IC50 (PRMT5/MEP50 complex [3]; [9]): 90 nM; IC50 (PRMT5/MEP50 complex [4]; [10]): 635 nM
Cn1ncc(-c2ccc3c(=O)[nH]nc(CN)c3c2)c1-c1ccc(Cl)c(OC2CC2)c1C#N [Example 4-208, 6-(4-(4-(aminomethyl)-1-oxo-1,2-dihydrophthalazin-6-yl)-1-methyl-1H-pyrazol-5-yl)-3-chloro-2-cyclopropoxybenzonitrile]	11	124	
Cn1ncc(-c2ccc3c(=O)[nH]nc(CN)c3c2)c1-c1cnn(Cc2ccccc2)c1C#N [Example 4-211, 4-(4-(aminomethyl)-1-oxo-1,2-dihydrophthalazin-6-yl)-1′-benzyl-2-methyl-1′H,2H-[3,4′-bipyrazole]-5′-carbonitrile]	197	2150	
Cn1ncc(-c2ccc3c(=O)[nH]nc(CN)c3c2)c1-c1cn(Cc2ccccc2)nc1C#N [Example 4-212, 4-(4-(aminomethyl)-1-oxo-1,2-dihydrophthalazin-6-yl)-1′-benzyl-2-methyl-1′H,2H-[3,4′-bipyrazole]-3′-carbonitrile]	> 10000	> 10000	
Cn1ncc(-c2ccc3c(=O)[nH]nc(CN)c3c2)c1-c1cn(-c2ccccc2)nc1Cl [Example 4-213, 4-(aminomethyl)-6-(3′-chloro-2-methyl-1′-phenyl-1′H,2H-[3,4′-bipyrazol]-4-yl)phthalazin-1(2H)-one]	88	1680	
Cn1ncc(-c2ccc3c(=O)[nH]nc(CN)c3c2)c1-c1cn(-c2ccccc2)nc1C#N [Example 4-214, 4-(4-(aminomethyl)-1-oxo-1,2-dihydrophthalazin-6-yl)-2-methyl-11-phenyl-1′H,2H-[3,4′-bipyrazole]-3′-carbonitrile]	> 10000	4400	
Cn1ncc(-c2ccc3c(=O)[nH]nc(CN)c3c2)c1-c1ccc2cc(F)ccc2c1C#N [Example 4-216, 2-(4-(4-(aminomethyl)-1-oxo-1,2-dihydrophthalazin-6-yl)-1-methyl-1H-pyrazol-5-yl)-6-fluoro-1-naphthonitrile]	83	134	
Cn1ncc(-c2ccc3c(=O)[nH]nc(CN)c3c2)c1-c1cc2ccccc2c(Cl)c1C#N [Example 4-218, 3-(4-(4-(aminomethyl)-1-oxo-1,2-dihydrophthalazin-6-yl)-1-methyl-1H-pyrazol-5-yl)-1-chloro-2-naphthonitrile]	140	134	
Cn1nc(Cl)c(-c2c(-c3ccc4c(=O)[nH]nc(CN)c4c3)cnn2C)c1C#N [Example 4-219, 4-(4-(aminomethyl)-1-oxo-1,2-dihydrophthalazin-6-yl)-3′-chloro-1′,2-dimethyl-1′H,2H-[3,4′-bipyrazole]-5′-carbonitrile]	> 1000	3610	
Cn1ncc(-c2ccc3c(=O)[nH]nc(CN)c3c2)c1-c1ccc2c(c1C#N)OCCC2 [Example 4-226, 7-(4-(4-(aminomethyl)-1-oxo-1,2-dihydrophthalazin-6-yl)-1-methyl-1H-pyrazol-5-yl)chromane-8-carbonitrile]	10	191	
Cn1ncc(-c2ccc3c(=O)[nH]nc(CN)c3c2)c1-c1cc2ccccn2c1C#N [Example 4-227, 2-(4-(4-(aminomethyl)-1-oxo-1,2-dihydrophthalazin-6-yl)-1-methyl-1H-pyrazol-5-yl)indolizine-3-carbonitrile]	> 1000	2370	
N#Cc1c(-c2sncc2-c2ccc3c(=O)[nH]nc(CN)c3c2)ccc2ccccc12 [Example 4-228, 2-(4-(4-(aminomethyl)-1-oxo-1,2-dihydrophthalazin-6-yl)isothiazol-5-yl)-1-naphthonitrile]	> 1000	> 10000	
Cn1ncc(-c2ccc3c(=O)[nH]nc(CN)c3c2)c1-c1cn(Cc2ccccc2C#N)nc1Cl [Example 4-232, 2-((4-(4-(aminomethyl)-1-oxo-1,2-dihydrophthalazin-6-yl)-3′-chloro-2-methyl-1′H,2H-[3,4′-bipyrazol]-1′-yl)methyl)benzonitrile]	148	4770	
Cn1ncc(-c2ccc3c(=O)[nH]nc(CN)c3c2)c1-c1cccc2cncn12 [Example 4-233, 4-(aminomethyl)-6-(5-(imidazo[1,5-a]pyridin-5-yl)-1-methyl-1H-pyrazol-4-yl)phthalazin-1(2H)-one]	> 1000	4730	
Cn1ncc(-c2ccc3c(=O)[nH]nc(CN)c3c2)c1-c1ccc2cccc(F)c2c1C#N [Example 4-234, 2-(4-(4-(aminomethyl)-1-oxo-1,2-dihydrophthalazin-6-yl)-1-methyl-1H-pyrazol-5-yl)-8-fluoro-1-naphthonitrile]	129	206	

Reference: patent US11479551B2, “MTA-cooperative PRMT5 inhibitors” (Mirati Therapeutics, Inc., priority 2019, dated 2022)
